# Patent US20260274829A1, “NEW E3 UBIQUITIN LIGASE LIGAND, PROTEIN DEGRADATION AGENT AND USE THEREOF” (GLUETACS THERAPEUTICS (SHANGHAI) CO., LTD., priority 2023, published 2026)
# Target: T1, human Cereblon WT GST-tagged protein (Homo sapiens, UniProt Q96SW2)
# T1 construct: purchased CISBIO 64BDCRBNPEH
# Test: CRBN binding, HTRF CEREBLON BINDING kit
# Details: CRBN binding, HTRF CEREBLON BINDING kit
# Method: The CEREBLON BINDING kits (specification: 10,000 tests; product number: Catalog #64BDCRBNPEH; CISBIO company) was used to determine the CRBN binding ability of the compounds to be tested through a HTRF method (homogeneous time-resolved fluorescence). The specific methods are as follows: • 1. […] Then, 2.5 μL of human Cereblon WT GST-tagged protein solution was added to each well. Finally, 5 μL of the thoroughly mixed Thalidomide-Re reagent and GST Eu antibody working solution were added to each of the aforementioned wells. […] The blank control wells were sequentially added with 2.5 μL of diluent #9 (1×) solution, 2.5 μL of binding buffer, and 5 μL of thoroughly mixed Thalidomide-Re reagent and GST Eu antibody working solution. • 4. After sealing and incubating the solutions in the aforementioned wells at room temperature for 3 hours, the absorbance values at emission wavelengths of 620 nm and 665 nm were detected by the HTRF method using a Spark microplate reader (V3.1 SP1).
# The corresponding CRBN binding inhibition rate was calculated using the following method:
# [formula] [formula] [formula] • Note: OD 665 nmcompound is the absorbance value of each well of the compounds to be tested of the present disclosure at an emission wavelength of 665 nm. • OD 620 nmcompound is the absorbance value of each well of the compounds to be tested of the present disclosure at an emission wavelength of 620 nm. • OD 665 nmcontrol is the absorbance value of the blank control well at an emission wavelength of 665 nm. • OD 620 nmcontrol is the absorbance value of the blank control well at an emission wavelength of 620 nm. • OD 665 nmStd0 is the absorbance value of the solvent control well at an emission wavelength of 665 nm. • OD 620 nmStd0 is the absorbance value of the solvent control well at an emission wavelength of 620 nm.
# T1 sequence (Q96SW2 whole entry): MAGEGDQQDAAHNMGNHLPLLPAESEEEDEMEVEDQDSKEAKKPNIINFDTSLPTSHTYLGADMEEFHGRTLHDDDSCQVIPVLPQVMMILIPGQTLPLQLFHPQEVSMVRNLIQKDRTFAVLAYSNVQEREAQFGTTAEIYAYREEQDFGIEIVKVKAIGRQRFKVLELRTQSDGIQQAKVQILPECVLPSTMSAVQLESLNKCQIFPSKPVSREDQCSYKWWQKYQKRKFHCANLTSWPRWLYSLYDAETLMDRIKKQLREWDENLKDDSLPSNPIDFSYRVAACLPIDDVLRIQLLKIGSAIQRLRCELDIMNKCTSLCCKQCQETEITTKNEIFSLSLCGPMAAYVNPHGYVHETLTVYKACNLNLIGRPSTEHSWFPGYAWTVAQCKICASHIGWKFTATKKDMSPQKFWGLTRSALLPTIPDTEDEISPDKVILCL
row,IC50,SMILES
1,1 to 1.9 µM,"CN(Cc1ccc(N2CCC(=O)NC2=O)nc1)C1CCN(c2ccc(-c3cc(F)c4c(c3)C(=O)N(C(C(=O)Nc3nccs3)c3ncn5c3CCC5)C4)cc2)CC1 (stereo not shown) [GT-05283, 2-(6,7-dihydro-5H-pyrrolo[1,2-c]imidazol-1-yl)-2-(6-(4-(4-(((6-(2,4-dioxotetrahydropyrimidin-1(2H)-yl)pyridin-3-yl)methyl)(methyl)amino)piperidin-1-yl)phenyl)-4-fluoro-1-oxoisoindolin-2-yl)-N-(thiazol-2-yl)acetamide]"
2,1 to 1.9 µM,"COc1cc2nn(C3CCN(Cc4cccc(NC5CCC(=O)NC5=O)c4)CC3)cc2cc1NC(=O)c1cccc(C(F)(F)F)c1 (stereo not shown) [GT-04749, N-(2-(1-(3-((2,6-dioxopiperidin-3-yl)amino)benzyl)piperidin-4-yl)-6-methoxy-2H-indazol-5-yl)-3-(trifluoromethyl)benzamide]"
3,0.5 to 1 µM,"CC(=O)c1c(C)c2cnc(Nc3ccc(N4CCN(Cc5ccc(C6CCC(=O)NC6=O)cc5)CC4)cn3)nc2n(C2CCCC2)c1=O (stereo not shown) [GT-06575, 3-(4-((4-(6-((6-acetyl-8-cyclopentyl-5-methyl-7-oxo-7,8-dihydropyrido[2,3-d]pyrimidin-2-yl)amino)pyridin-3-yl)piperazin-1-yl)methyl)phenyl)piperidine-2,6-dione]"
4,1 to 1.9 µM,"Cc1ccc(-c2c(C)noc2C)cc1N(CC1CCN(Cc2ccc(N3CCC(=O)NC3=O)cc2F)CC1)c1ccc(C2(C#N)CC2)cc1 [GT-04973, 1-(4-((5-(3,5-dimethylisoxazol-4-yl)-2-methylphenyl)((1-(4-(2,4-dioxotetrahydropyrimidin-1(2H)-yl)-2-fluorobenzyl)piperidin-4-yl)methyl)amino)phenyl)cyclopropane-1-carbonitrile]"
5,0.5 to 1 µM,"NC(=O)c1ncc(N2CCCCC2)nc1Nc1ccc(C2CCN(Cc3cccc(NC4CCC(=O)NC4=O)c3)CC2)cc1 (stereo not shown) [GT-04791, 3-((4-(1-(3-((2,6-dioxopiperidin-3-yl)amino)benzyl)piperidin-4-yl)phenyl)amino)-5-(piperidin-1-yl)pyrazine-2-carboxamide]"
6,1 to 1.9 µM,"COc1ccc2cn(C3CCN(Cc4ccc(C5CCC(=O)NC5=O)cc4)CC3)nc2c1NC(=O)c1cccc(C(F)(F)F)c1 (stereo not shown) [GT-04813, N-(2-(1-(4-(2,6-dioxopiperidin-3-yl)benzyl)piperidin-4-yl)-6-methoxy-2H-indazol-7-yl)-3-(trifluoromethyl)benzamide]"
7,< 0.5 µM,"COc1cc(N2CCN(Cc3cc(C4CCC(=O)NC4=O)cnc3F)CC2)ccc1Nc1ncc(Cl)c(Nc2ccccc2P(C)(C)=O)n1 (stereo not shown) [GT-07710, 3-(5-((4-(4-((5-chloro-4-((2-(dimethylphosphoryl)phenyl)amino)pyrimidin-2-yl)amino)-3-methoxyphenyl)piperazin-1-yl)methyl)-6-fluoropyridin-3-yl)piperidine-2,6-dione]"
8,0.5 to 1 µM,"Cc1nc2c(F)cc(-c3nc(Nc4ccc(CN5CCN(Cc6ccc(C7CCC(=O)NC7=O)cc6)CC5)cn4)ncc3F)cc2n1C(C)C (stereo not shown) [GT-06664, 3-(4-((4-((6-((5-fluoro-4-(4-fluoro-1-isopropyl-2-methyl-1H-benzo[d]imidazol-6-yl)pyrimidin-2-yl)amino)pyridin-3-yl)methyl)piperazin-1-yl)methyl)phenyl)piperidine-2,6-dione]"
9,> 10 µM,CN(C)C/C=C/C(=O)Nc1cc2c(Nc3ccc(F)c(Cl)c3)ncnc2cc1O[C@H]1CCOC1 [afatinib]
10,0.5 to 1 µM,"CCc1cc2c(cc1N1CCC(N3CCN(Cc4ccc(N5CCC(=O)NC5=O)cc4)CC3)CC1)C(C)(C)c1[nH]c3cc(C#N)ccc3c1C2=O [GT-07307, 8-(4-(4-(4-(2,4-dioxotetrahydropyrimidin-1(2H)-yl)benzyl)piperazin-1-yl)piperidin-1-yl)-9-ethyl-6,6-dimethyl-11-oxo-6,11-dihydro-5H-benzo[b]carbazole-3-carbonitrile]"
11,1 to 1.9 µM,"COC1CCN(c2nccc(Nc3cc4c(cn3)c(N3CCC(N(C)Cc5cccc(N6CCC(=O)NC6=O)c5)CC3)nn4C(C)C)n2)CC1 [GT-06122, 1-(3-(((1-(1-isopropyl-6-((2-(4-methoxypiperidin-1-yl)pyrimidin-4-yl)amino)-1H-pyrazolo[4,3-c]pyridin-3-yl)piperidin-4-yl)(methyl)amino)methyl)phenyl)dihydropyrimidine-2,4(1H,3H)-dione]"
12,< 0.5 µM,"CN(Cc1ccc(N2CCC(=O)NC2=O)cc1)C1CCN(c2ccc(-c3cc(F)c4c(c3)C(=O)N(C(C(=O)Nc3nccs3)c3ncn5c3CCC5)C4)cc2)CC1 (stereo not shown) [GT-05219, 2-(6,7-dihydro-5H-pyrrolo[1,2-c]imidazol-1-yl)-2-(6-(4-(4-((4-(2,4-dioxotetrahydropyrimidin-1(2H)-yl)benzyl)(methyl)amino)piperidin-1-yl)phenyl)-4-fluoro-1-oxoisoindolin-2-yl)-N-(thiazol-2-yl)acetamide]"
13,1 to 1.9 µM,"COc1cc(N2CCC(N(C)Cc3ccc(N4CCC(=O)NC4=O)cn3)CC2)ccc1Nc1ncc(Cl)c(Nc2ccccc2P(C)(C)=O)n1 [GT-07617, 1-(6-(((1-(4-((5-chloro-4-((2-(dimethylphosphoryl)phenyl)amino)pyrimidin-2-yl)amino)-3-methoxyphenyl)piperidin-4-yl)(methyl)amino)methyl)pyridin-3-yl)dihydropyrimidine-2,4(1H,3H)-dione]"
14,0.5 to 1 µM,"Cc1ccc(-c2c(C)noc2C)cc1N(CC1CCN(Cc2ccc(N3CCC(=O)NC3=O)cn2)CC1)c1ccc(C2(C#N)CC2)cc1 [GT-06411, 1-(4-((5-(3,5-dimethylisoxazol-4-yl)-2-methylphenyl)((1-((5-(2,4-dioxotetrahydropyrimidin-1(2H)-yl)pyridin-2-yl)methyl)piperidin-4-yl)methyl)amino)phenyl)cyclopropane-1-carbonitrile]"
15,1 to 1.9 µM,"O=C1CCN(c2ccc(CN3CCC(N4CCN(c5ccc6c(c5)nc(NC(=O)c5cccc(C(F)(F)F)c5)n6[C@H]5CC[C@@H](CO)CC5)CC4)CC3)nc2)C(=O)N1 [GT-05024, N-(5-(4-(1-((5-(2,4-dioxotetrahydropyrimidin-1(2H)-yl)pyridin-2-yl)methyl)piperidin-4-yl)piperazin-1-yl)-1-((1s,4s)-4-(hydroxymethyl)cyclohexyl)-1H-benzo[d]imidazol-2-yl)-3-(trifluoromethyl)benzamide]"
16,< 0.5 µM,"O=C1CCN(c2ccc(CN3CCC(n4cc(NC(=O)c5cnn6ccc(N7CCOCC7)nc56)c(C(F)F)n4)CC3)nc2)C(=O)N1 [GT-05799, N-(3-(difluoromethyl)-1-(1-((5-(2,4-dioxotetrahydropyrimidin-1(2H)-yl)pyridin-2-yl)methyl)piperidin-4-yl)-1H-pyrazol-4-yl)-5-morpholinopyrazolo[1,5-a]pyrimidine-3-carboxamide]"
17,0.5 to 1 µM,"CCc1cc2c(cc1N1CCC(N3CCN(Cc4cccc(N5CCC(=O)NC5=O)c4)CC3)CC1)C(C)(C)c1[nH]c3cc(C#N)ccc3c1C2=O [GT-07310, 8-(4-(4-(3-(2,4-dioxotetrahydropyrimidin-1(2H)-yl)benzyl)piperazin-1-yl)piperidin-1-yl)-9-ethyl-6,6-dimethyl-11-oxo-6,11-dihydro-5H-benzo[b]carbazole-3-carbonitrile]"
18,< 0.5 µM,"CN(Cc1cccc(N2CCC(=O)NC2=O)c1)C1CCN(c2ccc(-c3cc(F)c4c(c3)C(=O)N(C(C(=O)Nc3nccs3)c3ncn5c3CCC5)C4)cc2)CC1 (stereo not shown) [GT-05281, 2-(6,7-dihydro-5H-pyrrolo[1,2-c]imidazol-1-yl)-2-(6-(4-(4-((3-(2,4-dioxotetrahydropyrimidin-1(2H)-yl)benzyl)(methyl)amino)piperidin-1-yl)phenyl)-4-fluoro-1-oxoisoindolin-2-yl)-N-(thiazol-2-yl)acetamide]"
19,1 to 1.9 µM,"COc1cc(N2CCC(N3CCN(Cc4ccc(N5CCC(=O)NC5=O)cn4)CC3)CC2)c(C)cc1Nc1ncc(Br)c(Nc2ccc3nccnc3c2P(C)(C)=O)n1 [GT-06003, 1-(6-((4-(1-(4-((5-bromo-4-((5-(dimethylphosphoryl)quinoxalin-6-yl)amino)pyrimidin-2-yl)amino)-5-methoxy-2-methylphenyl)piperidin-4-yl)piperazin-1-yl)methyl)pyridin-3-yl)dihydropyrimidine-2,4(1H,3H)-dione]"
20,1 to 1.9 µM,"CCc1cc2c(cc1N1CCN(Cc3ccc(N4CCC(=O)NC4=O)cc3)CC1)C(C)(C)c1[nH]c3cc(C#N)ccc3c1C2=O [GT-07324, 8-(4-(4-(2,4-dioxotetrahydropyrimidin-1(2H)-yl)benzyl)piperazin-1-yl)-9-ethyl-6,6-dimethyl-11-oxo-6,11-dihydro-5H-benzo[b]carbazole-3-carbonitrile]"
21,< 0.5 µM,"O=C1CCN(c2ccc(CN3CCC(n4cc(NC(=O)c5cnn6ccc(N7CCOCC7)nc56)c(C(F)F)n4)CC3)cc2)C(=O)N1 [GT-05798, N-(3-(difluoromethyl)-1-(1-(4-(2,4-dioxotetrahydropyrimidin-1(2H)-yl)benzyl)piperidin-4-yl)-1H-pyrazol-4-yl)-5-morpholinopyrazolo[1,5-a]pyrimidine-3-carboxamide]"

row,SMILES,IC50
1,CNC(=O)c1ccc(N2C(=S)N(c3ccc(C#N)c(C(F)(F)F)c3)C(=O)C2(C)C)cc1F [Enzalutamide],> 10 µM
